The source of these data is US7731994B2, “Pharmaceutical composition for protecting neurons comprising extract of lithospermum erythrothizon SIEB. ET. Zucc or acetylshikonin isolated therefrom as an effective ingredient” (Industry Academic Cooperation Foundation of Kyunghee …, priority 2007, dated 2010).

“Also recorded” adds a separate entry of the source.

In assay [1] the test system is rats with local brain ischemia induced by middle cerebral arterial occlusion. Description: Defensive effect in rats with local brain ischemia induced by middle cerebral arterial occlusion (TTC staining, infarct volume). The format is in vivo, Sprague-dawley male rats. As to conditions: right after and 120 minutes after brain ischemia was induced, MCAo 120 min, 22 hours reperfusion. The protocol:
Sprague-dawley male rats at 8 weeks having the weight of 280 g-300 g were purchased from Samtako, Inc., Korea. The rats were supplied with feed and water enough and adapted to the experimental environment for one week. Middle cerebral arterial occlusion was performed by intraluminal suture method based on the method of Zea longa, et al (Zea longa, et al., Stroke, 20, pp 84-91, 1989). Once middle cerebral artery of a rat is closed, blood flow is interrupted around middle cerebral arterial region so that oxygen and other energy source are exhausted, leading to cell death. In particular, tissue necrosis is observed in the center of the middle cerebral arterial region, striatum and temporal lobe, which is so called 'ischemic core'. Although not middle cerebral arterial region, the neighboring cells begin to be auto-destroyed, which is called '[…] penumbra'. 3 hours after blocking middle cerebral artery, necrosis starts and from 6 hours after blocking, cerebral ischemia is developed. The progress of cerebral ischemia continues for 24 hours after middle cerebral artery was closed for 120 minutes, and on the 3rd day, it reaches the highest degree. To measure the level of cerebral ischemia, it is necessary to measure correlated infarct volume (mm^3). […] Blood sugar and blood gas were measured from the blood sample. […]

The subject of assay [2] is BV-2 cells activated by lipopolysaccharide. Description: NO generation (Griess reagent) in BV-2 cells activated by lipopolysaccharide. Format: cell-based. As to conditions: 100 ng/ml lipopolysaccharide. The protocol: (§1) To investigate the effect of acetylshikonin on the activation of microglia cells which are macrophages in brain, NO generation was measured in BV-2 cells and primary microglia cells which are neuroglia cells, activated by lipopolysaccharide according to the previously reported methods with slight modifications (Min Kim J, et al., Neuroreport, 14(15), pp1941-1944, 2003).
(§2) BV-2 cells (Lab. of Dr. Eui-Ju Choi, Korea University) were maintained in DMEM (Dulbeccols Modified Eagle Medium, Gibco-BRL, England) supplemented with 10% FBS (Fetal Bovine Serum, Gibco-BRL, England) and 1% penicillin-streptomycin (Gibco-BRL, England). To obtain the primary microglia cells, brain cells were separated from the brain extracted from Sprague-Dawley rat (Taconic, Japan) at less than 1 week from the birth and the cells were cultured for approximately 2 weeks in DMEM having the same composition with the one used for BV-2 cell culture in a 75T flask and then the primary microglia cells were recovered. BV-2 cells and the primary microglia cells were distributed into a 96 well plate at the concentration of […] and then cultured in a 37° C., 5% CO2 incubator for overnight. […] OD570 was measured by Elyzerleader (Moleulat Device, USA) and the concentration was calculated by considering the level of sodium nitrite as standard.
On the technique in general: Griess reagent forms a coloured azo dye with nitrite.

Assay [3] concerns primary microglia cells activated by lipopolysaccharide. Description: NO generation (Griess reagent) in primary microglia cells activated by lipopolysaccharide. The conditions noted are these: 100 ng/ml lipopolysaccharide. The format is cell-based, Sprague-Dawley rat. How it is done: as §1, §2
For the next assay, the system named is iNOS mRNA. Briefly: RT-PCR of iNOS mRNA expression in primary microglia cells activated by lipopolysaccharide. Format: cell-based, Sprague-Dawley rat. The conditions noted are these: 100 ng/ml lipopolysaccharide co-treated with 0.1, 1 uM, 24 hours. How it is done:
To investigate the inhibition of iNOS mRNA expression by acetylshikonin, […] was performed.
The primary microglia cells cultured in DMEM supplemented with 10% FBS and 1% penicillin-streptomycin were distributed in a 6 well plate at the concentration of 4×10^6 cells/well, followed by culture for 24 hours. 100 ng/ml of lipopolysaccharide and 0.1, 1 uM of acetylshikonin were co-treated thereto, followed by activation of the cells for 24 hours. The control group was not treated with lipopolysaccaride. After 24 hours of activation, the culture medium was discarded and the cells were washed with cold PBS ([…]), to which trypsin was treated. 1 ml of PBS containing the cells was obtained, followed by centrifugation at 12,000 rpm for 2 minutes to separate the cells. The cells were lysed in RNA separation solution (easyblue) to extract RNA from the cells, followed by centrifugation at 12,000 rpm for 15 minutes. After treating chloroform, centrifugation was performed again at 13,000 rpm for 25 minutes and the supernatant was obtained and washed with isopropanol to extract RNA. cDNA was synthesized using 5 ug of the RNA and 5 μmol of primer at 45° C., followed by PCR. […]

A further assay deals with IL-1beta mRNA. Description: RT-PCR of IL-1beta mRNA expression in primary microglia cells activated by lipopolysaccharide. The conditions noted are these: 100 ng/ml lipopolysaccharide co-treated with 0.1, 1 uM, 24 hours. Format: cell-based, Sprague-Dawley rat.
The next assay concerns TNF-alpha mRNA. Description: RT-PCR of TNF-alpha mRNA expression in primary microglia cells activated by lipopolysaccharide. Format: cell-based, Sprague-Dawley rat. As to conditions: 100 ng/ml lipopolysaccharide co-treated with 0.1, 1 uM, 24 hours.
The subject of the next assay is iNOS. Description: Western blot of iNOS expression in primary microglia cells activated by lipopolysaccharide. The format is cell-based, Sprague-Dawley rat. The conditions noted are these: 100 ng/ml lipopolysaccharide co-treated with 0.1, 1 uM, 24 hours. The protocol: (§3) Western blot analysis was performed to investigate the inhibition of iNOS expression by acetylshikonin.
(§4) The primary microglia cells cultured in DMEM supplemented with 10% FBS and 1% penicillin-streptomycin were distributed in a 6 well plate at the concentration of 4×10^6 cells/well, followed by culture for 24 hours. 100 ng/ml of lipopolysaccharide and 0.1, 1 uM of acetylshikonin were co-treated thereto, followed by activation of the cells for 24 hours. The control group was not treated with lipopolysaccaride. After 24 hours of activation, the culture medium was discarded and the cells were washed with cold PBS, to which trypsin was treated. 1 ml of PBS containing the cells was obtained, followed by centrifugation at 12,000 rpm for 2 minutes to separate the cells. The cells were loaded in 50 μl of triple lysis buffer to decompose all the cell membranes and then centrifugation was performed at 12,000 rpm for 30 minutes to obtain supernatant, a protein layer. The obtained supernatant was diluted and protein was quantified by Bradford method. After quantification, an equal amount of protein proceeded onto 8% polyacrylamide gel electrophoresis. The separated proteins from the electrophoresis were transferred onto Hybond ECL nitrocellulose membrane, leading to the reaction with primary and secondary antibodies of iNOS and IL-1beta. ECL examination was performed.
In general terms: Immunoblotting shows a protein as a band on a membrane.

The subject of the next assay is IL-1beta. Briefly: Western blot of IL-1beta expression in primary microglia cells activated by lipopolysaccharide. Format: cell-based, Sprague-Dawley rat. As to conditions: 100 ng/ml lipopolysaccharide co-treated with 0.1, 1 uM, 24 hours. The protocol: as §3, §4
Setting [4] is: 24 hours, 0.1, 0.5 and 1 uM tested, inhibition stated at 1 uM.
Where [5] appears, read: 24 hours, 0.5 mM positive control.

Turning to `CC(=O)O[C@H](CC=C(C)C)C1=CC(=O)c2c(O)ccc(O)c2C1=O` [acetylshikonin], the “protective effect on brain tissue damage, compared with the control” value in assay [1] (1 mg/kg orally) is given as approximately 46.88%; in assay [1] (3 mg/kg orally), 68.75%. For the same compound, the NO generation result in assay [2] (setting [4]) and in assay [3] (setting [4]) was “inhibited the generation of nitric oxide dose dependently; also recorded: inhibition of NO generation” throughout. In addition, in the assay on iNOS mRNA, the “expression of mRNA of iNOS” value is listed as “inhibited”. Besides, the “expression of mRNA of IL-1beta” value in the assay with IL-1beta mRNA is listed as “inhibited”. For the same compound, in the assay on TNF-alpha mRNA, the “expression of mRNA of TNF-alpha” value is reported as “inhibited”. Moreover, in the assay with iNOS, the “expression of iNOS (protein)” value was “inhibited”. For the same compound, the “expression of IL-1beta (protein)” value in the assay on IL-1beta is recorded as “inhibited”.
For the compound `CNC(=N)NCCC[C@H](N)C(=O)O` [positive control, N super(G)-monomethyl-L-arginine, reference compound], the NO generation result in assay [2] (setting [5]) and in assay [3] (setting [5]) was “inhibition of NO generation” each time.
